Experimental data as given in patent publication US20240216330A1, “COMBINATION TREATMENT METHODS OF MULTIPLE SCLEROSIS” (BIOGEN MA INC., priority 2021, published 2024).
Counter-ions that a name gives are not always drawn. Marks after values point to notes of the source that are not given here.

Experiments:
[1] = test system: B cell-dependent experimental autoimmune encephalomyelitis (EAE); experiment: Prophylactic B cell-dependent EAE, murine model of multiple sclerosis (hMOG1-125 immunization); type: in vivo, C57BL/6 mice; conditions: BIIB091 50 mpk and/or DRF 90 mpk p.o. BID; for End score +/- SD: EAE score scale 0 to 5, end of study Day 28; for MMS +/- SD (mean maximum score): EAE score scale 0 to 5; for MMS +/- SD (mean maximum score) / EAE incidence / Median day of onset (all mice): Day 0 to Day 27; for End % body weight +/- SD: end of study Day 28; for EAE incidence / Median day of onset (all mice): female C57BL/6 mice; for EAE incidence: 20 animals per group; for Median day of onset (all mice): study end Day 28
Source text: The goal of the study is to compare efficacy of diroximel fumarate (Vumerity) alone, BIIB091 alone, and the combination diroximel fumarate and BIIB091 in B cell-dependent experimental autoimmune encephalomyelitis (EAE). B cells are required for experimental autoimmune encephalomyelitis (EAE) induced by immunization of female C57BL/6J mice with full length recombinant human myelin oligodendrocyte glycoprotein (MOG) hMOG1-125 in adjuvant (Oliver, A. R. et al. “Rat and human myelin oligodendrocyte glycoproteins induce experimental autoimmune encephalomyelitis by different mechanisms in C57BL/6 mice.” J Immunol (2003). 171(1): 462-468; Lyons, J. et al “B cells are critical to induction of experimental allergic encephalomyelitis by protein but not by a short encephalitogenic peptide”. Eur. J. Immunol. (1999), 29: 3432-3439). [table] Female mice at 9-13 weeks of age (age-matched within one week) were ordered from Taconic Biosciences and given standard water and chow ad libitum throughout the duration of the experiment. Mice were acclimated to the […] for at least 7 days prior to the start of the study. EAE was induced in all mice as follows: [table] Mice were injected subcutaneously at 2 sites in the back with the emulsion component (containing MOG1-125) of Hooke KitTM MOG1-125/CFA Emulsion PTX, catalog number EK-2160 (Hooke Laboratories, Lawrence MA). The first site of injection was in the upper back, approximately 1 cm caudal of the neck line. The second site was in the lower back, approximately 2 cm cranial of the base of the tail. The injection volume was 0.1 mL at each site. Within 2 hours of the injection of emulsion, and then again 24 hours after the injection of emulsion, the pertussis toxin component of the kit was administered intraperitoneally. Mice were assigned to groups in a balanced manner to achieve similar average weight across the groups at the start of the study (Day-1). Dosing volume of all treatments was 5 mL/kg. Both treatment compounds were formulated in the same vehicle: (0.5% HPMC E50 premium LV/0.2% Tween 20 pH 4 (50 mM Citrate Buffer) [table] Dosing of all mice started on Day 0 and continued through Day 27. Dosing for each treatment was at the same time (+/-1 hour) each dosing day. There were at least 30 and not more than 90 minutes between administration of Treatments 1 and 2. There were no less than 10 and no more than 14 hours between doses of the same article Readouts are EAE scores and body weight. Body weight were measured 3 times/week (Monday, Wednesday, Friday; weighing may be delayed 1 day if these fall on a major US holiday), starting on Day-1. Animals were scored daily starting from Day 7. All readouts continued until termination of the study. Scoring was performed blind, by a person unaware both of treatment and of previous scores for each mouse. EAE was scored on the scale of 0 to 5 according to scoring criteria in Table 3 below: [table] In-between scores were assigned when the clinical signs fall between two above defined scores. b. Statistical Analysis Hooke's standard statistical analysis for EAE studies was applied, according to Table 4 below. [table]

[2] = test system: MRL/LPR mice (autoimmune disease resembling systemic lupus erythematosus); experiment: MRL/LPR mice model of lupus; type: in vivo; conditions: female MRL/LPR mice, oral BID for 11 weeks from 9 weeks of age; BIIB091 50 mg/kg, DRF 90 mg/kg
Source text: MRL/MpJ-Fas^lppr/J (MRL-lpr) (hereinafter MRL/LPR mice) mice develop an autoimmune disease resembling systemic lupus erythematosus (SLE). These mice have a severe disease progression involving anti-DNA antibodies, fatal glomerulonephritis, vasculitis, skin lesions, lymphadenopathy and splenomegaly. The causative mutation in this strain of mice is a loss of function in the death receptor Fas and disease onset is accelerated in female mice as compared to males. For this reason, female mice were chosen for these experiments.
Female MRL/LPR mice were ordered from the Jackson laboratory and all experiments were conducted a Boulder Biopath.
Female mice were dosed orally beginning at 9 weeks of age with BIIB091 alone, DRF alone, BIIB091 and DRF in combination or the vehicle control twice daily (BID) for 11 weeks. BIIB091 was dosed at 50 mg/kg, while DRF was dosed at 90 mg/kg, respectively. Cyclophosphamide (CPA) was used as a positive control in the study and was administered through intraperitoneal injection (IP) once daily at 15 mg/kg. […]
The following serum cytokines and chemokines were assessed using Luminex assays: IL-1B, IL-2, IL-4, IL-5, IL-6, IL-10, IL-12, IL-13, IL-15, IL-17A, IL-17E, IL-17F, IL-21, IL-22, IL-23, IL-27, IL-28B, IL-31 and IL-33; sCD40L, GM-CSF, IFNγ, MIP-3α, TNFα and TNFβ. […]

[3] = test system: BCR-mediated CD69 upregulation on CD19+ B cells; experiment: CD69 assay in whole blood stimulated with anti-human IgD; type: cell-based; conditions: 30 minutes pre-incubation at 37° C., overnight anti-IgD stimulation
[4] = cited from earlier work

| Compound | End score +/- SD [1] | MMS +/- SD (mean maximum score) [1] | End % body weight +/- SD [1] | EAE incidence [1] | Median day of onset (all mice) [1] | Efficacy in mice model of lupus [2] | Inhibition of BCR-mediated CD69 upregulation ([3]; whole blood samples from MS patients not on treatment or treated with non-DMF DMTs) | Inhibition of BCR-mediated CD69 upregulation ([3]; whole blood samples from MS patients treated with DMF) | MMF exposure ([4]; DRF 462 mg dose taken orally versus DMF 240 mg dose taken orally) | GI tolerability ([4]; compared to DMF) |
| --- | --- | --- | --- | --- | --- | --- | --- | --- | --- | --- |
| Cn1cc(Nc2nccc(-c3ccc4c(c3)CN(C3COC3)CC[C@H]4NC(=O)c3cn(C(C)(C)C)nn3)n2)cn1 [BIIB091, (R)-1-(tert-butyl)-N-(8-(2-((1-methyl-1H-pyrazol-4-yl)amino)pyrimidin-4-yl)-2-(oxetan-3-yl)-2,3,4,5-tetrahydro-1H-benzo[c]azepin-5-yl)-1H-1,2,3-triazole-4-carboxamide] | 0.60 +/− 0.88^a | 1.13 +/− 1.38^a | 102.8% +/− 8.3%^a | 45.0%^a | >28.0^a* day | efficacious | inhibited | inhibited |  |  |
| COC(=O)/C=C/C(=O)OCCN1C(=O)CCC1=O [DRF, diroximel fumarate] | 1.00 +/− 1.19^a | 1.45 +/− 1.52^a | 98.2% +/− 8.3% | 50.0%^a | >28.0^a* day | did not show efficacy |  |  | comparable to that of the DMF 240 mg dose | improved GI tolerability compared to DMF |
